Measurements taken from patent publication US8119614B2, “Substitution derivatives of N6-benzyladenosine, methods of their preparation, their use for preparation of drugs, cosmetic preparations and growth regulators, pharmaceutical preparations, cosmetic preparations and growth regulators containing these compounds” (Ustav Experimentalni Botaniky Akademie Ved Ceske Republiky, priority 2002, dated 2012).
“Also recorded” adds a separate entry of the source.

Assays:
[1] = tested on: spring wheat (variety Sandra); assay: Field studies: yield analysis of spring wheat crop; format: in vivo; conditions: spray of 10^−6 molar solution, Control = 100.0
Experimental: Crops (over the 4-year period) of spring wheat were sown in the experimental fields of Czech Agriculture University (CZU) (region of sugar beet production type) at a seeding rate of 400 germinative grains·m^−2 into ploughed and shoddy soil containing 116.1 mg/kg P, 228.3 mg/kg K, and 211.8 mg/kg Mg (agrochemical analyses were done at Department of Pedology CZU) (interval between ploughing and sowing is usually 3-4 days, longer only in case of adverse weather conditions). Preceding crop was rape. Soil preparation was done by the classical way using skid and harrow and after seeding is rolled.
(§1) Height of plants, leaf area, dry matter, development of vegetation opex—bases of future spike, and number of spikelets were monitored after germination in 14 day intervals, […]. From these primary data, values used in production physiology are derived, as leaf area index LAI, photosynthetic capacity LAD, tillering potential. Experiments with treatment of spring wheat crop (variety Sandra) are carried out on the field (area 10 m^2, four replicates) by spraying 1 litr of 10^−6 molar solution of tested compound (cytokinin) at the transition period from jointing stage to athesis stage (49 DC).
Yield analysis, evaluating spike lenght and seed number per spikelet (Σ Z/K) were carried out for 30 plant per each variant, yield from 1 m^2 and 1000 grain weight (HTS) was determined from 8 replicates, yield per ha was subsequently calculated.

[2] = tested on: glutamate kinase; assay: Field studies: glutamate kinase activity in spring wheat; format: in vivo; design: tested at 1 µM (10^-6 M spray solution); conditions: 6 days after the application, Control = 100.0
Experimental: as §1
Glutamate kinase activity was determined 6 days after the application. This enzyme was selected because of good corelation of its activity changes and state of transport of endogenous substances (nutrients from roots, assimilates to cariopsis), respiration, energy (adenosintriphosphate) transfer, storage of nutrients, growth and developmental proceses, and also metabolism of proline, which is known from literature to play an important role in adaptation against stress (unsuitable stand, drought, hypersalinity, coldness) and also in regulation of both theoretical and real production (restriction of seed number reduction per spikelet). Enzyme glutamate kinase catalyses to glutamate conversion into γ glutamylphosphate, which is first step of proline biosynthesis from glutamate. Therefore, this enzyme is, as essential precursor of other plant metabolic pathways, marker of stress inhibition. It can be determined spectrofotometrically (Vasáková, 1980). For analysis, acetone powder is prepared from a sample by standard method, subsequently extracted by 0.05M potassium-phosphate buffer pH=7.2 and centrifugated. Glutamate kinase fraction is precipitated using crystalline ammonium sulfate and after dialysis, glutamate kinase activity is determined spectrophotometrically. Proline accumulation increased by stress corresponds as a “feedback” to glutamate kinase inhibition.

[3] = tested on: Human lymphocytes; assay: Immunosuppressive activity: concanavalin A induced lymphocyte proliferation, [^3H]-TdR incorporation; format: cell-based; conditions: 72 hours, read-out: Human lymphocytes ED50
Experimental: Human heparinized peripheral blood was obtained from healthy volunteers by cubital vein punction. The blood was diluted in PBS (1:3) and mononuclear cells were separated by centrifugation in Ficoll-Hypaque density gradient (Pharmacia, 1.077 g/ml) at 2200 rpm for 30 minutes. Following centrifugation, lymphocytes were washed in PBS and resuspended in cell culture medium (RMPI 1640, 2 mM glutamine, 100 U/ml penicillin, 100 μg/ml streptomycin, 10% fetal calf serum and sodium bicarbonate).
The cells were diluted at target density of 1,100,000 cells/ml were added by pipette (180 μl) into 96/well microtiter plates. Four-fold dilutions of the intended test concentration were added at time zero in 20 μl aliquots to the microtiter plate wells. Usually, test compound was evaluated at six 4-fold dilutions. In routine testing, the highest well concentration was 266.7 μM. All drug concentrations were examined in duplicates. All wells with exception of unstimulated controls were activated with 50 μl of concanavalin A (25 μg/ml). Incubations of cells with test compounds lasted for 72 hours at 37° C., in 5% CO2 atmosphere and 100% humidity. At the end of incubation period, the cells were assayed by using the [^3H]-TdR:
Cell cultures were incubated with 0.5 μCi (20 μl of stock solution 500 μCi/ml) per well for 6 hours at 37° C. and 5% CO2. The automated cell harvester was used to lyse cells in water and adsorb the DNA onto glass-fiber filters in the format of microtiter plate. The DNA incorporated [^3H]-TdR was retained on the filter while unincorporated material passes through. The filters were dried at room temperature overnight, sealed into a sample bag with 10-12 ml of scintillant. The amount of [^3H]-TdR present in each filter (in cpm) was determined by scintillation counting in a Betaplate liquid scintillation counter. The effective dose of immunosuppressant (ED) was calculated using the following equation: ED=(CCPMdrug exposed well/mean CCPMcontrol wells)×100%. The ED50 value, the drug concentration inhibiting proliferation of 50% of lymphocytes, was calculated from the obtained dose response curves.

[4] = tested on: mouse fibroblasts NIH3T3; assay: In vitro cytotoxic activity, Calcein AM assay, NIH-3T3; format: cell-based; conditions: 72 hours, read-out: IC 50 NIH-3T3
How it was run: (§2)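 Cells seeded at 10^4 per well, pre-incubated 24 h at 37 °C/5% CO2, then exposed 72 h to six 4-fold dilutions of compound (top well concentration usually 166.7 μM) in duplicate. Viability read by Calcein AM fluorescence after 1 h; GI50 taken from dose-response curves.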

[5] = tested on: Human T-lymphoblastic leukemia cell line CEM; assay: In vitro cytotoxic activity, Calcein AM assay, CEM; format: cell-based; conditions: 72 hours
How it was run: as §2

[6] = tested on: promyelocytic HL-60; assay: In vitro cytotoxic activity, Calcein AM assay, HL60; format: cell-based, human; conditions: 72 hours, read-out: IC 50 HL60
How it was run: as §2

[7] = tested on: human malignant melanoma cells G361; assay: In vitro cytotoxic activity, Calcein AM assay, G-361; format: cell-based; conditions: 72 hours, read-out: IC 50 G-361
From the text: One of the parameters used, as the basis for cytotoxicity assays, is the metabolic activity of viable cells. For example, a microtiter assay, which uses the Calcein AM, is now widely used to quantitate cell proliferation and cytotoxicity. For instance, this assay is used in drug screening programs and in chemosensitivity testing. Because only metabolically active cells cleave Calcein AM, these assays detect viable cells exclusively. The quantity of reduced Calcein AM corresponds to the number of vital cells in the culture.
Human T-lymphoblastic leukemia cell line CEM; promyelocytic HL-60 and monocytic U937 leukemias; breast carcinoma cell lines MCF-7; cervical carcinoma cells HELA; mouse fibroblasts NIH3T3; human erythroleukaemia K562 and human malignant melanoma cells G361 were used for routine screening of compounds. The cells were maintained in Nunc/Corning 80 cm^2 plastic tissue culture flasks and cultured in cell culture medium (DMEM with 5 g/l glucose, 2 mM glutamine, 100 U/ml penicillin, 100 μg/ml streptomycin, 10% fetal calf serum and sodium bicarbonate).
The cell suspensions that were prepared and diluted according to the particular cell type and the expected target cell density (10^4 cells per well based on cell growth characteristics) were added by pipette (80 μl) into 96/well microtiter plates. Inoculates were allowed a pre-incubation period of 24 hours at 37° C. and 5% CO2 for stabilisation. Four-fold dilutions of the intended test concentration were added at time zero in 20 μl aliquots to the microtiter plate wells. Usually, test compound was evaluated at six 4-fold dilutions. In routine testing, the highest well concentration was 166.7 μM, but it can be the matter of change dependent on the agent. All drug concentrations were examined in duplicates. Incubations of cells with the test compounds lasted for 72 hours at 37° C., in 5% CO2 atmosphere and 100% humidity. At the end of incubation period, the cells were assayed by using the Calcein AM. Ten microliters of the stock solution were pipetted into each well and incubated further for 1 hours. Fluorescence (FD) was measured with the Labsystem FIA Reader Fluoroscan Ascent (UK). The tumour cell survival (GI50) was calculated using the following equitation: GI50=(FDdrug exposed well/mean FDcontrol wells)×100%. The GI50 value, the drug concentration lethal to 50% of the tumour cells, was calculated from the obtained dose response curves (FIG. 3).

[8] = tested on: HOS; assay: In vitro cytotoxic activity, Calcein AM assay, HOS; format: cell-based; conditions: 72 hours
[9] = tested on: human erythroleukaemia K562; assay: In vitro cytotoxic activity, Calcein AM assay, K-562; format: cell-based; conditions: 72 hours, read-out: IC 50 K-562
How it was run: as §2

[10] = tested on: breast carcinoma cell lines MCF-7; assay: In vitro cytotoxic activity, Calcein AM assay, MCF7; format: cell-based, human; conditions: 72 hours, read-out: IC 50 MCF7
How it was run: as §2

[11] = tested on: Amaranthus caudatus cotyledon/hypocotyl explants; assay: Amaranthus bioassay (betacyanin content); format: in vivo
How it was run: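 Surface-sterilised Amaranthus caudatus var. atropurpurea seeds were germinated 72 h at 25° C. in darkness, then de-rooted. Cotyledon/hypocotyl explants (20 per dish) were incubated under green safe light on filter paper with 1 ml medium of 10 μmol NA2HPO4-KH2PO4, pH 6.8, 5 μmol tyrosine and cytokinin (10^-8M to 10^-4M) for 48 h at 25° C. in darkness. Betacyanin was extracted in […] acetic acid and measured by absorbance at 537 nm and 620 nm.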

[12] = tested on: Rosa hybrida ‘Pailin’; assay: Early shoot senescence inhibition of tissue cultured roses; format: in vivo; conditions: 10 μM in medium
Experimental: Rosa hybrida ‘Pailin’ (a cut rose) was cultured in 350 ml vessels with a screw on polycarbonate lid. Each culture vessel contained 100 ml autoclaved medium (120° C., 20 min). The cultures were maintained at 23±2° C. under a 16 h photoperiod at […] m^−2 s^−1 PAR. The basal medium (MBR) contained Murashige and Skoog (1962) macroelements, microelements and vitamins, 36.7 mg/l NaFeEDTA, 50 mg/l NaFeEDDHA, […], 30 g/l sucrose, 100 mg/l glycine, 50 mg/l calcium pantothenate, 100 mg/l L-glutamine and 7 g/l agar-agar. This medium was supplemented with 10 μM of the tested cytokinin. New cytokinins were filter sterilised and added after autoclaving the medium in the vessels. 6-Benzylaminopurine (BAP) was used as a standard compound; the control medium didn't contain any cytokinin. After a culture period of 6 weeks, scoring senescence symptoms was started.

[13] = tested on: Rosa multiflora; assay: In vitro and post vitro multiplication and rooting of rose; format: in vivo
[14] = Ex vitro, after four weeks of acclimatising

Structure (SMILES): OC[C@H]1O[C@@H](n2cnc3c(NCc4ccccc4)ncnc32)[C@H](O)[C@@H]1O [BAPR, 6-benzylaminopurine riboside, reference compound]
- HTS (%) (1000 grain weight) [1]: 103.8%
- Yield(%) [1]: 121.9%
- Σ Z/K (%) (seed number per spikelet) [1]: 114.3%
- Σ spike/m^2 (%) [1]: 102.7%
- GK % (glutamate kinase activity) [2]: 154.1%

Structure (SMILES): COc1ccc(CNc2ncnc3c2ncn3[C@@H]2O[C@H](CO)[C@@H](O)[C@H]2O)c(O)c1 [2-hydroxy-4-methoxybenzylamino, 6-(2-hydroxy-4-methoxybenzylamino)purine riboside]
- EC50 [3]: 1.5 µM

Structure (SMILES): OC[C@H]1O[C@@H](n2cnc3c(NCc4cccc(O)c4)ncnc32)[C@H](O)[C@@H]1O [3-hydroxybenzylamino, 6-(3-hydroxybenzylamino)purine riboside]
- IC50 [4]: > 167 µM
- EC50 [3]: 10.7 µM
- IC50 [5]: 51.9 µM
- IC50 [6]: 23.7 µM
- IC50 [7]: > 167 µM
- IC50 [8]: > 167 µM
- IC50 [9]: > 167 µM
- IC50 [10]: > 167 µM

Structure (SMILES): OC[C@H]1O[C@@H](n2cnc3c(NCc4ccccc4O)ncnc32)[C@H](O)[C@@H]1O [2-hydroxybenzylamino, 6-(2-hydroxybenzylamino)purine riboside]
- IC50 [4]: 43.2 µM
- EC50 [3]: 4.8 µM
- IC50 [5]: 0.7 µM
- IC50 [6]: 0.42 µM
- IC50 [7]: > 167 µM
- IC50 [8]: 2.8 µM
- IC50 [9]: 88 µM
- IC50 [10]: 11.4 µM

Structure (SMILES): OC[C@H]1O[C@@H](n2cnc3c(NCc4ccc(O)c(O)c4)ncnc32)[C@H](O)[C@@H]1O [3,4-dihydroxybenzylamino, 6-(3,4-dihydroxybenzylamino)purine riboside]
- EC50 [3]: 8.3 µM
- Concentration with highest activity ([11]; 48 h dark): 10^−4 mol · l^−1
- Activity (%) [10^−5 mol · l^−1 BAP = 100%] ([11]; at concentration with highest activity): 8 ± 3%

Structure (SMILES): c1ccc(CNc2ncnc3nc[nH]c23)cc1 [BAP, 6-benzylaminopurine, reference compound]
- senescence / dying of rose explants (in words) [12]: the relative number of dead plants looks like a sigmoid curve; also recorded: dead Rosa explant
- shoot multiplication and rooting (in words) ([13]; 10 μM in medium): high shoot multiplication rate, but the shoots rooted badly
- Root number per plant [13, 14]: 0.6
- Total root length per plant (cm) [13, 14]: 1.1 cm
- Flower number per explant ([13]; In vitro, 10 μM, 8 weeks): 0.00
- Number of new shoots per explant ([13]; In vitro, 10 μM, 8 weeks): 3.8
- Root number per explant ([13]; In vitro, 10 μM, 8 weeks): 0.0
- Total root length per explant (cm) ([13]; In vitro, 10 μM, 8 weeks): 0.0 cm
- HTS (%) (1000 grain weight) [1]: 102.0%
- Yield(%) [1]: 115.4%
- Σ Z/K (%) (seed number per spikelet) [1]: 111.9%
- Σ spike/m^2 (%) [1]: 101.1%
- GK % (glutamate kinase activity) [2]: 108.2%

Structure (SMILES): OC[C@H]1O[C@@H](n2cnc3c(NCc4cccc(Cl)c4O)ncnc32)[C@H](O)[C@@H]1O [2-hydroxy-3-chlorobenzylamino, 6-(2-hydroxy-3-chlorobenzylamino)purine riboside]
- IC50 [4]: > 167 µM
- EC50 [3]: 2.1 µM
- IC50 [5]: 0.3 µM
- IC50 [6]: 0.1 µM
- IC50 [7]: 128 µM
- IC50 [8]: > 167 µM
- IC50 [9]: 10.7 µM
- IC50 [10]: 15 µM

Structure (SMILES): Oc1cccc(CNc2ncnc3nc[nH]c23)c1 [mT, 6-(3-hydroxybenzylamino)purine]
- senescence / dying of rose explants (in words) [12]: the situation improved
